# Read-outs that look alike come from different tables or passages of the source.
# Assay: Plasma PK of H3B-6545 capsules in fasted patients, phase 1 dose escalation
# Type: in vivo, human
# Conditions: for Tlag: Median (Min, Max)
# Description: Blood samples were collected at the planned time points from each patient and centrifuged. The plasma portion of each sample was then transferred to a K2EDTA tube, which was then shipped to a bioanalytical lab for concentration measurement using LC-MS/MS. The concentration data were then analyzed using Phoenix® WinNonlin software to obtain PK parameters. The obtained PK parameters were further summarized using analytical software.
# Blood samples (approximately 5 mL each) were collected from human patients pre-dose and at various hourly time points post-dose. Plasma concentrations of H3B-6545 were determined using a validated high-performance liquid chromatography/tandem mass spectrometry (LC-MS/MS) method. The lower limit of quantification was 0.100 ng/mL.
# The PK Analysis Set included subjects who received H3B-6545 drug product in capsules or tablets and had sufficient evaluable plasma concentration data to derive at least 1 primary PK parameter in each treatment. Plasma concentrations of H3B-6545 (as free base) were tabulated and summarized at each nominal time using descriptive statistics (number of subjects, arithmetic mean with standard deviation [SD], coefficient of variation [CV %], geometric mean, median, minimum, and maximum) as appropriate. Individual and mean (±SD) plasma concentration-time profiles were provided for each treatment.
# Pharmacokinetic parameters of H3B-6545 were calculated using noncompartmental methods, using an appropriate model for plasma data and extravascular administration. The PK parameters included, but were not limited to, area under the curve to the time of the last quantifiable concentration (AUC0-t), maximum concentration (Cmax), and time at which the maximum concentration occurred (tmax). If data permitted, the area under the plasma concentration-time curve extrapolated to infinity (AUC0-inf), terminal elimination half-life (t1/2), apparent total body clearance (CL/F), total systemic clearance after oral administration at steady state (CLss/F), apparent volume of distribution during the terminal phase (Vz/F), apparent steady-state volume of distribution (Vss), accumulation ratio for Cmax (RCmax) and accumulation ratio of AUC0-24 (RAUC) were also derived.
# Methods were used to analyze whether H3B-6545 inactivates both wild-type and mutant ERα by targeting cysteine 530 and enforcing a unique antagonist conformation. Methods: Women with locally advanced or metastatic HR+BC are treated (tx) with H3B-6545 drug product administered once daily orally by capsule over a 28 day cycle after progression on at least one hormonal therapy and at least one additional therapy/regimen. Dose escalation uses a 3+3 design with the option to backfill previously cleared doses and allows for intrapatient dose escalation. This example explored the safety, pharmacokinetics and pharmacodynamics of H3B-6545 in women with HR+BC to identify a recommended subsequent dose for testing.
# • H3B-6545 administered once daily orally over a 28 day cycle. • Dose escalation using a standard 3+3 study design using dose cohorts of 100, 200, 300, 450, and 600 mg QD. • Patients allowed to backfill previously cleared doses. • Intra-patient dose escalation allowed after completion of Cycle 3. Results (as of Apr. 20, 2019) Patient Population: • 46 patients were treated with H3B-6545 at doses of 100 to 600 mg QD. • 42 (91.3%) patients received a prior CDK4/6 inhibitor and 32 (69.6%) prior fulvestrant. • 30 (65.2%) patients received ≥3 prior anti-cancer therapy lines in the advanced/metastatic setting.
# The clinical trial of Example 3 was continued and PK evaluations (of this Example 4) were made at a later date on the basis of a larger patient population. The summary of Tables 1 in Analysis of Pharmacokinetic (PK) of Capsules in Fasted Patients and 2 show PK parameters and profiles of human patients receiving capsules of H3B-6545 drug product prepared as in Example 1. […]
# [1] = Cycle 1 Day 15, 100 mg QD capsules, fasted patients, Geometric Mean (GeoCV %)
# [2] = Cycle 1 Day 15, 100 mg QD capsules, fasted patients, normalized from Table 11
# [3] = Cycle 1 Day 15, 200 mg QD capsules, fasted patients, Geometric Mean (GeoCV %)
# [4] = Cycle 1 Day 15, 200 mg QD capsules, fasted patients, normalized from Table 11
# [5] = Cycle 1 Day 15, 300 mg QD capsules, fasted patients, Geometric Mean (GeoCV %)
# [6] = Cycle 1 Day 15, 300 mg QD capsules, fasted patients, normalized from Table 11
# [7] = Cycle 1 Day 15, 450 mg QD capsules, fasted patients, Geometric Mean (GeoCV %)
# [8] = Cycle 1 Day 15, 450 mg QD capsules, fasted patients, normalized from Table 11
# [9] = Cycle 1 Day 15, 600 mg QD capsules, fasted patients, Geometric Mean (GeoCV %)
# [10] = Cycle 1 Day 15, 600 mg QD capsules, fasted patients, normalized from Table 11
# [11] = Cycle 1 Day-Dose Escalation, 100 mg QD capsules, fasted patients, normalized from Table 9
# [12] = Cycle 1 Day-Dose Escalation, 200 mg QD capsules, fasted patients, normalized from Table 9
# [13] = Cycle 1 Day-Dose Escalation, 300 mg QD capsules, fasted patients, normalized from Table 9
# [14] = Cycle 1 Day-Dose Escalation, 450 mg QD capsules, fasted patients, normalized from Table 9
# [15] = Cycle 1 Day-Dose Escalation, 600 mg QD capsules, fasted patients, normalized from Table 9
# [16] = female, human, plasma, oral, 100 mg, Cycle 1 Day 1, 100 mg QD capsules, fasted patients, Geometric Mean (GeoCV %)
compound,measurement,setting,value
"CN(C)C(=O)/C=C/CNCCOc1ccc(/C(=C(/CC(F)(F)F)c2ccccc2)c2ccc3[nH]nc(F)c3c2)cn1 [H3B-6545, (E)-N,N-dimethyl-4-[2-[5-[(Z)-4,4,4-trifluoro-1-(3-fluoro-1H-indazol-5-yl)-2-phenylbut-1-enyl]pyridin-2-yl]oxyethylamino]but-2-enamide]",plasma exposure versus dose,"100 mg to 600 mg, Cycle 1, Day 1, preliminary PK analyses (FIG. 1)",roughly dose-proportional increase
same,"tmax and half-life, dependence on dose and time","100 mg to 600 mg, preliminary PK analyses (FIG. 1)",independent of dose and time
same,plasma concentration versus dose,"100 to 600 mg, as of Apr. 20, 2019 (FIG. 1)",increased with dose
same,CL/F,"Cycle 1 Day 1, 100 mg QD capsules, fasted patients, Geometric Mean (GeoCV %)",46.9 (92.2); 6 L/h
same,Tlag,"Cycle 1 Day 1, 100 mg QD capsules, fasted patients",0 (0-1); 6 h
same,CL/F,"Cycle 1 Day 1, 200 mg QD capsules, fasted patients, Geometric Mean (GeoCV %)",37.9 (68.3); 8 L/h
same,Tlag,"Cycle 1 Day 1, 200 mg QD capsules, fasted patients",0 (0-0.6); 12 h
same,CL/F,"Cycle 1 Day 1, 300 mg QD capsules, fasted patients, Geometric Mean (GeoCV %)",27.1 (49.1); 10 L/h
same,Tlag,"Cycle 1 Day 1, 300 mg QD capsules, fasted patients",0 (0-0.58); 11 h
same,CL/F,"Cycle 1 Day 1, 450 mg QD capsules, fasted patients, Geometric Mean (GeoCV %)",19.6 (42.4); 8 L/h
same,Tlag,"Cycle 1 Day 1, 450 mg QD capsules, fasted patients",0 (0-0.5); 11 h
same,CL/F,"Cycle 1 Day 1, 600 mg QD capsules, fasted patients, Geometric Mean (GeoCV %)",18.3 (68.6); 5 L/h
same,Tlag,"Cycle 1 Day 1, 600 mg QD capsules, fasted patients",0 (0-0.5); 7 h
same,CLss/F,[1],39.1 (56.2); 6 L/h
same,RAUC (accumulation ratio of AUC0-24),[1],1.52 (58.3); 6
same,RCmax (accumulation ratio for Cmax),[1],1.61 (69.3); 6
same,Tlag,"Cycle 1 Day 15, 100 mg QD capsules, fasted patients",0 (0-0); 6 h
same,AUC0-24 (per 1 mg of API),[2],25.6 ng·h/mL/mg
same,AUC0-inf (per 1 mg of API),[2],29.5 ng·h/mL/mg
same,AUC0-t (per 1 mg of API),[2],25.9 ng·h/mL/mg
same,Cmax (per 1 mg of API),[2],2.9 ng/mL/mg
same,CLss/F,[3],29.1 (52.8); 10 L/h
same,RAUC (accumulation ratio of AUC0-24),[3],1.43 (72.9); 10
same,RCmax (accumulation ratio for Cmax),[3],1.28 (118.2); 10
same,Tlag,"Cycle 1 Day 15, 200 mg QD capsules, fasted patients",0 (0-0); 10 h
same,AUC0-24 (per 1 mg of API),[4],34.4 ng·h/mL/mg
same,AUC0-inf (per 1 mg of API),[4],39.8 ng·h/mL/mg
same,AUC0-t (per 1 mg of API),[4],34.6 ng·h/mL/mg
same,Cmax (per 1 mg of API),[4],3.0 ng/mL/mg
same,CLss/F,[5],26.2 (50.5); 10 L/h
same,RAUC (accumulation ratio of AUC0-24),[5],1.27 (38.3); 11
same,RCmax (accumulation ratio for Cmax),[5],1.34 (38.3); 11
same,Tlag,"Cycle 1 Day 15, 300 mg QD capsules, fasted patients",0 (0-0); 11 h
same,AUC0-24 (per 1 mg of API),[6],40.0 ng·h/mL/mg
same,AUC0-inf (per 1 mg of API),[6],42.5 ng·h/mL/mg
same,AUC0-t (per 1 mg of API),[6],40.3 ng·h/mL/mg
same,Cmax (per 1 mg of API),[6],4.0 ng/mL/mg
same,CLss/F,[7],32.1 (52.6); 10 L/h
same,RAUC (accumulation ratio of AUC0-24),[7],0.920 (49); 10
same,RCmax (accumulation ratio for Cmax),[7],1.05 (42.1); 10
same,Tlag,"Cycle 1 Day 15, 450 mg QD capsules, fasted patients",0 (0-0); 10 h
same,AUC0-24 (per 1 mg of API),[8],31.2 ng·h/mL/mg
same,AUC0-inf (per 1 mg of API),[8],38.6 ng·h/mL/mg
same,AUC0-t (per 1 mg of API),[8],31.2 ng·h/mL/mg
same,Cmax (per 1 mg of API),[8],3.1 ng/mL/mg
same,CLss/F,[9],32.7 (78.1); 3 L/h
same,RAUC (accumulation ratio of AUC0-24),[9],0.712 (31.4); 3
same,RCmax (accumulation ratio for Cmax),[9],0.685 (69.2); 3
same,Tlag,"Cycle 1 Day 15, 600 mg QD capsules, fasted patients",0 (0-0); 3 h
same,AUC0-24 (per 1 mg of API),[10],30.6 ng·h/mL/mg
same,AUC0-inf (per 1 mg of API),[10],66.2 ng·h/mL/mg
same,AUC0-t (per 1 mg of API),[10],31.2 ng·h/mL/mg
same,Cmax (per 1 mg of API),[10],2.8 ng/mL/mg
same,AUC0-24 (per 1 mg of API),[11],16.8 ng·h/mL/mg
same,AUC0-inf (per 1 mg of API),[11],21.3 ng·h/mL/mg
same,AUC0-t (per 1 mg of API),[11],16.8 ng·h/mL/mg
same,Cmax (per 1 mg of API),[11],1.78 ng/mL/mg
same,AUC0-24 (per 1 mg of API),[12],23.8 ng·h/mL/mg
same,AUC0-inf (per 1 mg of API),[12],26.37 ng·h/mL/mg
same,AUC0-t (per 1 mg of API),[12],24.1 ng·h/mL/mg
same,Cmax (per 1 mg of API),[12],2.4 ng/mL/mg
same,AUC0-24 (per 1 mg of API),[13],31.6 ng·h/mL/mg
same,AUC0-inf (per 1 mg of API),[13],36.9 ng·h/mL/mg
same,AUC0-t (per 1 mg of API),[13],31.8 ng·h/mL/mg
same,Cmax (per 1 mg of API),[13],3.0 ng/mL/mg
same,AUC0-24 (per 1 mg of API),[14],35.9 ng·h/mL/mg
same,AUC0-inf (per 1 mg of API),[14],51.1 ng·h/mL/mg
same,AUC0-t (per 1 mg of API),[14],35.9 ng·h/mL/mg
same,Cmax (per 1 mg of API),[14],3.3 ng/mL/mg
same,AUC0-24 (per 1 mg of API),[15],37.3 ng·h/mL/mg
same,AUC0-inf (per 1 mg of API),[15],54.8 ng·h/mL/mg
same,AUC0-t (per 1 mg of API),[15],37.2 ng·h/mL/mg
same,Cmax (per 1 mg of API),[15],3.4 ng/mL/mg
same,AUC(0-inf),[16],2.13 µg·h/mL
same,Cmax,[16],0.178 µg/mL
same,half-life,[16],10.2 h
same,AUC(0-t),"female, human, plasma, oral, 100 mg, Cycle 1 Day 1, 100 mg QD capsules, fasted patients, Geometric Mean (GeoCV %), read-out: AUC0-24",1.68 µg·h/mL
same,AUC(0-t),"female, human, plasma, oral, 100 mg, Cycle 1 Day 1, 100 mg QD capsules, fasted patients, Geometric Mean (GeoCV %), read-out: AUC0-t",1.68 µg·h/mL

# From patent US12702660B2, “Method for treating cancer with an oral dosage form of an estrogen receptor-alpha inhibitor” (Eisai R&D Management Co., Ltd., priority 2019, dated 2026)
